Data from patent publication US12636322B2, “Bacterial strain with high cellulolytic activity” (INSTITUT NATIONAL SUPERIEUR DES SCIENCES AGRONOMIQUES DE …, priority 2021, dated 2026).

test system: F. succinogenes HC4; assay: Phenotypic tests for antibiotic resistance; format: cell-based, Fibrobacter succinogenes; conditions: liquid filter paper semi-synthetic medium, anaerobic, 48 hours at 38° C.
Description: Eight antibiotics were tested according to EFSA recommendations for Gram-negative bacteria (31). Before being added to the filter paper semi-synthetic medium, the antibiotics were sterilized by filtration (0.22 μm filters). 24-hours cultures of strain HC4 were inoculated into media containing each antibiotic. A positive control without antibiotics was inoculated from the same culture of strain HC4 and two cultures were prepared for each condition. After 48 hours of incubation at 38° C., the observation of filter paper degradation allowed estimating the bacterial growth. In case of no degradation, a sample of liquid was taken and frozen at −20° C. for further determination of succinate production.

**Q.** For `[H]/N=C(/N)N[C@H]1[C@H](O)[C@@H](O)[C@H](O[C@@H]2O[C@@H](C)[C@](O)(C=O)[C@H]2O[C@@H]2O[C@@H](CO)[C@H](O)[C@@H](O)[C@@H]2NC)[C@@H](N/C(N)=N\[H])[C@@H]1O` [Streptomycin], which “Concentrations to inhibit growth” value is on record?
**A.** 2048 mg/L

**Q.** How did the “Concentrations to inhibit growth” value turn out when `CC1(C)S[C@@H]2[C@H](NC(=O)[C@H](N)c3ccccc3)C(=O)N2[C@H]1C(=O)O` [Ampicillin] was run?
**A.** 32 mg/L

**Q.** For Gentamicin, which “Concentrations to inhibit growth” value is on record?
**A.** 128 mg/L

**Q.** How did the “Concentrations to inhibit growth” value turn out when Colistin was run?
**A.** 64 mg/L

**Q.** Which “Concentrations to inhibit growth” value does the source give for `C[C@@H]1O[C@@H]1P(=O)(O)O` [Fosfomycin] here?
**A.** 512 mg/L

**Q.** With `NC[C@H]1O[C@H](O[C@H]2[C@H](O)[C@@H](O[C@H]3O[C@H](CO)[C@@H](O)[C@H](N)[C@H]3O)[C@H](N)C[C@@H]2N)[C@H](O)[C@@H](O)[C@@H]1O` [Kanamycin] as the molecule, how does the “Concentrations to inhibit growth” value read?
**A.** 8000 mg/L

**Q.** Which “Concentrations to inhibit growth” value does the source give for `CN(C)[C@@H]1C(=O)C(C(N)=O)=C(O)[C@@]2(O)C(=O)C3=C(O)c4c(O)cccc4[C@@](C)(O)[C@H]3C[C@@H]12` [Tetracyclin] here?
**A.** 1 mg/L
